{
  "source": "paper PMC12316777",
  "molecules": {"B1": {"name": "ExoN substrate dsRNA (dsRNA)", "RNA 1": "GGUAGUAAUCCGCUC", "RNA 2": "UUUUUUUUUUUUUUUUUUUUGAGCGGAUUACUACUACC"}},
  "key": {"[1]": {"system": "SARS-CoV-2 Omicron BA.5 in VeroE6-TMPRSS2 cells", "test": "Plaque reduction assay", "type": "cell-based", "details": "VeroE6-TMPRSS2, n = 2, read-out: EC50, inhibition of SARS-CoV-2 virus replication"}, "[2]": {"biological_target": "SARS-CoV-2 nsp14/nsp10 complex (Severe acute respiratory syndrome coronavirus 2, UniProt P0DTD1)", "test": "FRET-based exoribonuclease (ExoN) activity assay", "type": "biochemical", "details": "for IC50: nsp14/nsp10 pre-incubated with compound 1 h, n = 3, read-out: IC50 (± SD) ExoN"}, "[3]": {"biological_target": "T1, SARS-CoV-2 nsp14 (Severe acute respiratory syndrome coronavirus 2, UniProt P0DTD1)", "type": "biochemical", "details": "for IC50: read-out: IC50 (± SD) MTase; for Km: increasing molar equivalents of Au(I)"}, "[4]": {"biological_target": "T1, SARS-CoV-2 nsp14", "test": "EMSA of nsp14 binding to dsRNA ExoN substrate", "details": "4 µM nsp14, 0–40 µM drug, 200 nM dsRNA", "excerpt": "Next, we explored the inhibition mechanism of nsp14/nsp10 by Au(I). We first investigated the inhibition mode of Au(I) on the dual activities of nsp14, for which we selected Au(PEt3)Cl as a showcase. To explore the influence of Au(I) on the kinetics of the nsp14/nsp10 ExoN activity, a 20-nucleotide 5′-dU overhang conjugated to a Cy3/BHQ2 pair was used as an RNA duplex substrate. Then, the reciprocals of the reaction velocity and the concentration of the two substrates were used to plot the Lineweaver–Burk plot. And the Michaelis–Menten constant (Km) and the maximum reaction rate (Vmax) were calculated by nonlinear fitting to the Michaelis − Menten equation.\nRNA-binding capability of nsp14 was determined by EMSA. […] For the bismuth(III) and Au(I) addition assays, nsp14 (4 µM) was pre-incubated with various concentrations of drugs (0, 1, 2, 4, 8, 20, 40 µM) in HEPES buffer for 2 h on ice before the RNA-binding assays before incubating with 200 nM of dsRNA at room temperature for 15 min. A 20 µL of the reaction mixture was then loaded onto 6% native-polyacrylamide gels and electrophoresed in 1xTBE buffer. Electrophoresis was carried out at 100 V for 50 min. Gels were subsequently stained by GelRed (Sigma Aldrich) for 5 min at room temperature and visualized through iBright™ CL750 Imaging System (Thermo Fisher Scientific).\nExoN substrates. Relative band intensities were quantified by ImageJ. […]"}, "[5]": {"biological_target": "T1, SARS-CoV-2 nsp14", "test": "Metal displacement analysis (equilibrium dialysis, ICP-MS), nsp14", "type": "binding", "excerpt": "(§1) Since nsp14 and nsp10 have 3 and 2 zinc-finger motifs respectively, playing structural roles and as well as being important to the functions of nsp14/nsp10 complex. The soft nature of Au(I) makes it very likely to bind to the thiolates/nitrogen atoms in these cysteine/histidine-rich zinc-binding sites. To verify this, we then investigated the binding of Au(I) to the native nsp14 and nsp10 using equilibrium dialysis and determined the metal contents by inductively coupled plasma mass spectrometry (ICP-MS). […] Similarly, ca. 1.84 ± 0.66 mol equiv of Au(I) bound to per nsp10, accompanied by ca. 1.89 ± 0.28 mol equiv of Zn(II) release. […] In addition, since the ExoN activity of nsp14 is largely stimulated by nsp10, and nsp10 − nsp14 intermolecular interaction involves residues around the zinc finger of nsp10 [33, 34], we also examined the influence of Au(I) binding to nsp10 on the ExoN activity of nsp14.\n(§2) Au(I) binding and Zn(II) release on nsp10 and nsp14 were determined by Inductively Coupled Plasma Mass Spectrometry (ICP-MS) on Agilent 7700 × ICP-MS (Agilent Technologies). […] Dialysis tubes loaded with 100 μL Zn-bound proteins (5 μM for nsp14 and nsp13 and 20 μM for nsp10) or protein buffer were placed into 50 mL dialysis buffer in the presence of different concentrations of Au(I) compounds (as Au(PEt3)Cl) with mild shaking at 18 °C overnight. The protein concentration was measured by bicinchoninic acid (BCA) assay, and the metal concentration of solution both inside and outside the dialysis tubes was determined by ICP-MS."}, "[6]": {"biological_target": "SARS-CoV-2 nsp10 (Severe acute respiratory syndrome coronavirus 2, UniProt P0DTD1)", "test": "Metal displacement analysis (equilibrium dialysis, ICP-MS), nsp10", "type": "binding", "excerpt": "as §1, §2"}, "[7]": {"biological_target": "T1, SARS-CoV-2 nsp14", "test": "Circular dichroism spectroscopy of nsp14 (BeStSel)", "details": "CD deconvoluted by BeStSel; around 65% in untreated nsp14"}, "[8]": {"biological_target": "T1, SARS-CoV-2 nsp14", "test": "Size-exclusion chromatography of nsp14", "details": "0−10 molar equivalents; monomer peak 9.6 mL decreases, peak at ca. 9.1 mL appears"}, "[9]": {"biological_target": "nsp14 (ExoN/N7-MTase) (SARS-CoV-2 isolate Wuhan-Hu-1, UniProt P0DTD1 5926-6452)", "test": "EMSA; no Au(I); 200 nM dsRNA, nsp14 0-8 uM", "details": "protein: recombinant; tags: N-terminal 6xHis, removed with thrombin; label: 5'-Cy3 on top strand; labels in EMSA not restated"}, "[10]": {"details": "nsp14 pre-incubated with compound 1 h, n = 3"}},
  "note": "Like-named read-outs stand apart in the source and are kept apart here.",
  "data": [
    {"molecule": "CC(=O)OC[C@H]1O[C@@H]([S-])[C@H](OC(C)=O)[C@@H](OC(C)=O)[C@@H]1OC(C)=O.CCP(CC)CC.[Au+]", "note": "[auranofin]", "values": [
      {"measurement": "EC50", "setting": "[1]", "result": "730 ± 210", "unit": "nM"}
    ]},
    {"molecule": "[Cl][Au][PH]12CN3CN(CN(C3)C1)C2", "note": "[Urotropine-Au-Cl]", "values": [
      {"measurement": "ExoN enzyme activity remaining", "setting": "[2]; 50 mol equiv of compound", "result": 0.68, "unit": "%"}
    ]},
    {"molecule": "O=S(=O)([O-])[S-].O=S(=O)([O-])[S-].[Au+].[Na+].[Na+].[Na+]", "note": "[Na3Au(S2O3)2, gold(I) sodium thiosulfate]", "values": [
      {"measurement": "IC50", "setting": "[2]", "result": "1710 ± 90", "unit": "nM"},
      {"measurement": "IC50", "setting": "[3]", "result": "1.77 ± 0.01", "unit": "µM"}
    ]},
    {"molecule": "(1-(adamantan-1-yl)thiourea)-(triethylphosphine)-gold(I) [Au-amantadine]", "values": [
      {"measurement": "IC50", "setting": "[2]", "result": "1570 ± 120", "unit": "nM"},
      {"measurement": "IC50", "setting": "[3]; [10]", "result": "8.16 ± 0.18", "unit": "µM"}
    ]},
    {"molecule": "CCP(CC)CC.[Au+].[Cl-]", "note": "[Au(PEt3)Cl, chloro(triethylphosphine)gold(I)]", "values": [
      {"measurement": "mode of inhibition of ExoN activity", "setting": "[2]; Lineweaver–Burk / Michaelis–Menten analysis", "result": "noncompetitive"},
      {"measurement": "Vmax, ExoN kinetics", "setting": "[2]; decreased from 2.7 with different molar equivalents of Au(I)", "result": 0.5, "unit": "nM/min"},
      {"measurement": "IC50", "setting": "[2]", "result": "380 ± 40", "unit": "nM"},
      {"measurement": "Vmax, G(5′)ppp(5′)A RNA-dependent MTase kinetics", "setting": "[3]", "result": 0.12, "unit": "µM/min"},
      {"measurement": "Vmax, SAM-dependent MTase kinetics", "setting": "[3]", "result": 0.09, "unit": "µM/min"},
      {"measurement": "mode of inhibition of MTase activity", "setting": "[3]; SAM- and GpppA-RNA-dependent kinetics", "result": "noncompetitive"},
      {"measurement": "Km", "setting": "[3]; read-out: Km, G(5′)ppp(5′)A RNA-dependent MTase kinetics", "result": "1180 ± 20", "unit": "nM"},
      {"measurement": "Km", "setting": "[3]; read-out: Km, SAM-dependent MTase kinetics", "result": "1620 ± 20", "unit": "nM"},
      {"measurement": "IC50", "setting": "[3]; [10]", "result": "4.5 ± 0.98", "unit": "µM"},
      {"measurement": "effect on formation of the nsp14−RNA complex", "setting": "[4]", "result": "negligible effects"},
      {"measurement": "Au(I) bound per nsp14", "setting": "[5]; equilibrium dialysis, ICP-MS", "result": "ca. 2.95 ± 0.23 mol equiv"},
      {"measurement": "Zn(II) release from nsp14", "setting": "[5]; equilibrium dialysis, ICP-MS", "result": "ca. 2.56 ± 0.21 mol equiv"},
      {"measurement": "maximal binding capacity (Bmax), nsp14", "setting": "[5]; fit to specific binding plot", "result": "3.10 ± 0.32"},
      {"measurement": "Kd", "setting": "[5]; fit to specific binding plot, read-out: dissociation constant (Kd), nsp14", "result": "6.54 ± 0.33", "unit": "µM"},
      {"measurement": "Au(I) bound per nsp10", "setting": "[6]; equilibrium dialysis, ICP-MS", "result": "ca. 1.84 ± 0.66 mol equiv"},
      {"measurement": "Zn(II) release from nsp10", "setting": "[6]; equilibrium dialysis, ICP-MS", "result": "ca. 1.89 ± 0.28 mol equiv"},
      {"measurement": "maximal binding capacity (Bmax), nsp10", "setting": "[6]; fit to specific binding plot", "result": "1.75 ± 0.60"},
      {"measurement": "Kd", "setting": "[6]; fit to specific binding plot, read-out: dissociation constant (Kd), nsp10", "result": "6.55 ± 0.77", "unit": "µM"},
      {"measurement": "helix content in nsp14 after treatment", "setting": "[7]", "result": 36, "unit": "%"},
      {"measurement": "effect on quaternary structure of nsp14", "setting": "[8]", "result": "partial oligomerization"}
    ]},
    {"molecule": "[Cl][Au]", "note": "[AuCl, gold(I) chloride]", "values": [
      {"measurement": "IC50", "setting": "[2]", "result": "5780 ± 310", "unit": "nM"},
      {"measurement": "IC50", "setting": "[3]; [10]", "result": "0.91 ± 0.01", "unit": "µM"}
    ]},
    {"molecule": "B1", "values": [
      {"measurement": "binding result", "setting": "[9]", "result": "binds"}
    ]}
  ]
}
